Measured values reported in patent US20100317715A1, “METHODS FOR TREATING NEUROPSYCHIATRIC CONDITIONS” (priority 2007, published 2010).
Read-outs that look alike come from different tables or passages of the source.

What was measured:
PAK4 = PAK4 (Homo sapiens, UniProt O96013); assay: Competitive binding assay (phage-displayed kinase vs immobilized staurosporine bait), PAK4; conditions: PAK Inhibitor Affinity Assay
PAK2 = PAK2 (Homo sapiens, UniProt Q13177); assay: Competitive binding assay (phage-displayed kinase vs immobilized staurosporine bait), PAK2
PAK1 = PAK1 (Homo sapiens, UniProt Q13153); assay: Competitive binding assay (phage-displayed kinase vs immobilized staurosporine bait), PAK1
PAK7 = PAK7 (Homo sapiens, UniProt Q9P286); assay: Competitive binding assay (phage-displayed kinase vs immobilized staurosporine bait), PAK7; conditions: PAK Inhibitor Affinity Assay
PAK6 = PAK6 (Homo sapiens, UniProt Q9NQU5); assay: biochemical; type: binding; conditions: PAK Inhibitor Affinity Assay
PAK6, sequence (Q9NQU5 whole entry): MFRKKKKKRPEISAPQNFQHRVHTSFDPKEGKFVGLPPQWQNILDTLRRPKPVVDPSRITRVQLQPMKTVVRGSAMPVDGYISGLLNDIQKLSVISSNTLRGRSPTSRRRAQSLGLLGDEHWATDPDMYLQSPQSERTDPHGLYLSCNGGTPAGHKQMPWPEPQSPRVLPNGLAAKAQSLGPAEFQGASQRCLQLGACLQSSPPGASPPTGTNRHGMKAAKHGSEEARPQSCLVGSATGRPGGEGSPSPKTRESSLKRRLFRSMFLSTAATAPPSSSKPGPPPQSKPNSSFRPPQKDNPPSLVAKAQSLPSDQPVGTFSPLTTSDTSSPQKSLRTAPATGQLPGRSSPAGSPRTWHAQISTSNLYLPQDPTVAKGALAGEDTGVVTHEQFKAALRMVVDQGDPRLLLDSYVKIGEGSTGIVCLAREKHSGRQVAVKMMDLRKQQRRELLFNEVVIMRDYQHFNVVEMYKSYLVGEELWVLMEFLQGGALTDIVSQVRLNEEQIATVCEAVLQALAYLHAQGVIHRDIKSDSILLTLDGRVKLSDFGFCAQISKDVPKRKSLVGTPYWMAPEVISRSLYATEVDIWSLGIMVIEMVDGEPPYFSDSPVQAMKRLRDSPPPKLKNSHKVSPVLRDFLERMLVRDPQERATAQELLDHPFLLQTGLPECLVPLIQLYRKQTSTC

PAK1, sequence (Q13153 whole entry): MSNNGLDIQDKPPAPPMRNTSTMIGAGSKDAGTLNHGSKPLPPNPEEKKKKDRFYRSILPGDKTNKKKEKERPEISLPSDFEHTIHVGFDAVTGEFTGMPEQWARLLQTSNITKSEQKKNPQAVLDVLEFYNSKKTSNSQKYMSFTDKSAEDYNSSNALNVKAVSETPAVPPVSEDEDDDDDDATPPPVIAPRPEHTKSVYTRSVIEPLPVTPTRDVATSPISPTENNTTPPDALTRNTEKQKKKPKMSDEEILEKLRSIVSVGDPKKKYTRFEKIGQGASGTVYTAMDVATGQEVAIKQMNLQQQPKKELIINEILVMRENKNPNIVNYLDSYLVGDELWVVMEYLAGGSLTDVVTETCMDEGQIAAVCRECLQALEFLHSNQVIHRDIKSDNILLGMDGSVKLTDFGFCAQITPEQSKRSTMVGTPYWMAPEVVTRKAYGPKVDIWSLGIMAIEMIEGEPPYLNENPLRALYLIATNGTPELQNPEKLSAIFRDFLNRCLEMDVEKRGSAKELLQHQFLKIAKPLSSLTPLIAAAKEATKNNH
PAK2, sequence (Q13177 whole entry): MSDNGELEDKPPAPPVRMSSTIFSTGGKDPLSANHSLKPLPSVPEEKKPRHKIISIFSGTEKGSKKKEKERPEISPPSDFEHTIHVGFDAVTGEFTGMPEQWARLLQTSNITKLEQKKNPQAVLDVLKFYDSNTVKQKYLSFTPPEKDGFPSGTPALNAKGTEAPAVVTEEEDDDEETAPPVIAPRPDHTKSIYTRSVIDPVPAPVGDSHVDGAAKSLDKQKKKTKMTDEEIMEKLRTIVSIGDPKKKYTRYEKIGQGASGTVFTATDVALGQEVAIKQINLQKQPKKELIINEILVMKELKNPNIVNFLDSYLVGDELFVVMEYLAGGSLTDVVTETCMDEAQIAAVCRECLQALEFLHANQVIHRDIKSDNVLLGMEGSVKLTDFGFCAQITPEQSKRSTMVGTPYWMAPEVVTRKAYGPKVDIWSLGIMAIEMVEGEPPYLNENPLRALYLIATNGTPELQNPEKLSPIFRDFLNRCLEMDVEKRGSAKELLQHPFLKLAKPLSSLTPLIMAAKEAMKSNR
PAK7, sequence (Q9P286 whole entry): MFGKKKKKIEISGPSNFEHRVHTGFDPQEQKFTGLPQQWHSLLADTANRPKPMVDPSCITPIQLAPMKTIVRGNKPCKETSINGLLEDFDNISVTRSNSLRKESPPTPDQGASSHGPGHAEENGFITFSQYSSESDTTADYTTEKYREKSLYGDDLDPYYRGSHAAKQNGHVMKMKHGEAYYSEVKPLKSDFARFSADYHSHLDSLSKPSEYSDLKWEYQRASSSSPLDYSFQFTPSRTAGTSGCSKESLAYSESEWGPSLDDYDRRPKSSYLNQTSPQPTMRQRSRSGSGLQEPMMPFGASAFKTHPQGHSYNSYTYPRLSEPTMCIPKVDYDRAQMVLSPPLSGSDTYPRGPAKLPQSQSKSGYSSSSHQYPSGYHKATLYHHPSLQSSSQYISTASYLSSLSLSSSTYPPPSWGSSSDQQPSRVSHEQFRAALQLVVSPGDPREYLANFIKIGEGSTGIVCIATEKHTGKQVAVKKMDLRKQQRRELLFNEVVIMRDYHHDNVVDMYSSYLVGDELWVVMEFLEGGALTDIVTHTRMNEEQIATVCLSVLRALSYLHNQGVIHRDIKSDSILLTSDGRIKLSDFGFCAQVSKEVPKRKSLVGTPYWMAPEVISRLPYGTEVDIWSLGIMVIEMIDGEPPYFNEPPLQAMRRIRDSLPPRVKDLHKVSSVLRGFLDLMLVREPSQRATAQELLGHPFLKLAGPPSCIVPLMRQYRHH
PAK4, sequence (O96013 whole entry): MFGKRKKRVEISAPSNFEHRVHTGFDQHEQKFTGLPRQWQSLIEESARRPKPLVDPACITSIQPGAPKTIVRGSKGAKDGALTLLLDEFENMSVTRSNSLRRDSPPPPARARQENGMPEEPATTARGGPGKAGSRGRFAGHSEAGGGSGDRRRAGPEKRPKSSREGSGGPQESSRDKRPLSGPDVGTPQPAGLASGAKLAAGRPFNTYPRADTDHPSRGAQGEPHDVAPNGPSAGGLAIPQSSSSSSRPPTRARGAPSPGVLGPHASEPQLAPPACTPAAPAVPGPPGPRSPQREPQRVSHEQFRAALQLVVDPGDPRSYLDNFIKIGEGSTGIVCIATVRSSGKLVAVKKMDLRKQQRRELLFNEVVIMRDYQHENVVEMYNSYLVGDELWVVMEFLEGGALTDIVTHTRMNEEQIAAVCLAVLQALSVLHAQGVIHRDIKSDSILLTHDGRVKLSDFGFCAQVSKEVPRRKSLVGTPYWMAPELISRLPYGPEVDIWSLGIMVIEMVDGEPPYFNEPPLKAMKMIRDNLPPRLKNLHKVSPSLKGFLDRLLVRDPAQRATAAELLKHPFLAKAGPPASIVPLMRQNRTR

| SMILES | Kd (PAK4) | Kd (PAK2; PAK Inhibitor Affinity Assay, read-out: Kd PAK2) | Kd (PAK1; PAK Inhibitor Affinity Assay, read-out: Kd PAK1) | Kd (PAK7) | Kd (PAK6) | Kd (PAK2) | Kd (PAK1) |
| --- | --- | --- | --- | --- | --- | --- | --- |
| CCOc1cc2ncc(C#N)c(Nc3ccc(F)c(Cl)c3)c2cc1NC(=O)/C=C/CN(C)C [EKB-569] | ≥ 10 µM | ≥ 10 µM | < 5 µM | ≥ 10 µM | ≥ 10 µM |  |  |
| Nc1nc(Nc2ccc(S(N)(=O)=O)cc2)nn1C(=O)c1c(F)cccc1F [JNJ-7706621] |  |  |  |  | < 5 µM | ≥ 10 µM | ≥ 10 µM |
